Data as given in ChEMBL document CHEMBL1140240, “Glutamic acid analogues as potent dipeptidyl peptidase IV and 8 inhibitors” (Bioorg Med Chem Lett, 2005).

target: Dipeptidyl peptidase 4 (Homo sapiens, UniProt P27487)
Sequence (P27487 whole entry): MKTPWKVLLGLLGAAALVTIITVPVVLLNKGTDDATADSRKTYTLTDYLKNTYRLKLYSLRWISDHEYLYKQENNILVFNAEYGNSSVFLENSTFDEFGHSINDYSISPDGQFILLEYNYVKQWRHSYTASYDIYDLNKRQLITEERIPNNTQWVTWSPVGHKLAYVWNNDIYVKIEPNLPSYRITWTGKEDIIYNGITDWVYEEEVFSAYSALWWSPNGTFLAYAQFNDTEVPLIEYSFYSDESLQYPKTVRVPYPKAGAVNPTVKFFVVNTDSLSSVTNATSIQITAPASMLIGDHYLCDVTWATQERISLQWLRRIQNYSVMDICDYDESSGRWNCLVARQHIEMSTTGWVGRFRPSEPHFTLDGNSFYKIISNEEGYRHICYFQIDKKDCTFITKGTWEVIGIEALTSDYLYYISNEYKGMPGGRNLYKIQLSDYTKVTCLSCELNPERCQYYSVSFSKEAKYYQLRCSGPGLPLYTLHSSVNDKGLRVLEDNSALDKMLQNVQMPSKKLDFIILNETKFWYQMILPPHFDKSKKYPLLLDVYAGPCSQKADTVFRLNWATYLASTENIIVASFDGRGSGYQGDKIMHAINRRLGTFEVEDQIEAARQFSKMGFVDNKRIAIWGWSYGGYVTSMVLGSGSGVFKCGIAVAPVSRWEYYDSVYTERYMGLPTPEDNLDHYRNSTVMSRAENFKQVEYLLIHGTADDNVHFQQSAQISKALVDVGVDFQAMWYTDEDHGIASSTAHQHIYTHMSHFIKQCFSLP

Row | Structure (SMILES) | IC50 [nM]
1 | COc1cc2c(cc1OC)C(C(C)C)N(C(=O)C[C@H](N)C(=O)N1CCC[C@H]1C#N)CC2 (stereo not given in full) | 47
2 | COc1cc2c(cc1OC)C(Cc1ccccc1)N(C(=O)C[C@H](N)C(=O)N1CCC[C@H]1C#N)CC2 (stereo not given in full) | 97
3 | COc1cc2c(cc1OC)C(C(C)(C)C)N(C(=O)C[C@H](N)C(=O)N1CCC[C@H]1C#N)CC2 (stereo not given in full) | 73
4 | N#C[C@@H]1CCCN1C(=O)[C@@H](N)CC(=O)NCc1ccccc1 | 238
5 | N#Cc1ccc[n+](N2CCN(C(=O)C[C@H](N)C(=O)N3CCC[C@H]3C#N)CC2)c1 | 87
6 | N#C[C@@H]1CCCN1C(=O)[C@@H](N)CC(=O)N1CCc2ccccc2C1 | 99
7 | COc1cc2c(cc1OC)CN(C(=O)C[C@H](N)C(=O)N1CCC[C@H]1C#N)CC2 | 63
8 | CC(C)C(Cc1ccccc1)NC(=O)C[C@H](N)C(=O)N1CCC[C@H]1C#N (stereo not given in full) | 305
9 | COCC(Cc1ccccc1)NC(=O)C[C@H](N)C(=O)N1CCC[C@H]1C#N (stereo not given in full) | 182
10 | CCC(NC(=O)C[C@H](N)C(=O)N1CCC[C@H]1C#N)c1ccccc1 (stereo not given in full) | 140
11 | CC(C)C(NC(=O)C[C@H](N)C(=O)N1CCC[C@H]1C#N)c1ccccc1 (stereo not given in full) | 212
12 | COc1ccc2c(c1)C(C(C)(C)C)N(C(=O)C[C@H](N)C(=O)N1CCC[C@H]1C#N)CC2 (stereo not given in full) | 195
13 | N#C[C@@H]1CCCN1C(=O)[C@@H](N)CC(=O)N1CCN(C(c2ccc(F)cc2)c2ccc(F)cc2)CC1 | 227
14 | COc1ccc2c(c1)CCN(C(=O)C[C@H](N)C(=O)N1CCC[C@H]1C#N)C2C(C)(C)C (stereo not given in full) | 72
15 | N#C[C@@H]1CCCN1C(=O)[C@@H](N)CC(=O)N1CCN(C(=O)c2ccccc2)CC1 | 123
16 | N#C[C@@H]1CCCN1C(=O)[C@@H](N)CC(=O)NC(Cc1ccccc1)c1ccccc1 (stereo not given in full) | 252
17 | COc1cc2c(cc1OC)C(CCO)N(C(=O)C[C@H](N)C(=O)N1CCC[C@H]1C#N)CC2 (stereo not given in full) | 45
18 | COc1ccc(CCNC(=O)C[C@H](N)C(=O)N2CCC[C@H]2C#N)cc1OC | 116
19 | CC(C)(C)C(NC(=O)C[C@H](N)C(=O)N1CCC[C@H]1C#N)c1ccccc1 (stereo not given in full) | 251

target: Dipeptidyl peptidase 2 (Homo sapiens, UniProt Q9UHL4); assay: Inhibitory concentration against DPP-II [Quiescent cell proline dipeptidase] or DPP-VII

Row | Structure (SMILES) | IC50 [nM]
20 | COc1cc2c(cc1OC)CN(C(=O)C[C@H](N)C(=O)N1CCC[C@H]1C#N)CC2 | 31300
